Measurements taken from PubChem BioAssay AID1963422 (Molecular Pharmacology Branch, DTP, NCI, 2024).
“And” between values parts separate entries of the source, which are not always exact repeats. Equal values may be shown once. Blank lines part the entries; values can stand above or below the compound they belong to.

Tested on: 463943-066-T-J2-PDC complex spheroid growth
Test: Anticancer human tumor 463943-066-T-J2-PDC patient-derived colon adenocarcinoma cell line growth inhibition [Asc]
Details: for viability, T/C: stronger effect = lower value
In short: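 Spheroid model: tumor line + HUVEC + hMSC. Single agents and combinations; top conc. at/near clinical Cmax (10 microM if undetermined), half-log dilutions. DMSO stocks at 800-fold test concentration.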

[1] = curve of first compound, second compound 0.0316 µM
[2] = curve of first compound, second compound 0.1 µM
[3] = curve of first compound, second compound 0.316 µM
[4] = curve of first compound, second compound 1 µM
[5] = curve of first compound, second compound 3.16 µM
[6] = curve of first compound, second compound 10 µM
[7] = second compound 0.0316 µM, first compound 0.0316 µM
[8] = second compound 0.0316 µM, first compound 0.1 µM
[9] = second compound 0.0316 µM, first compound 0.316 µM
[10] = second compound 0.0316 µM, first compound 1 µM
[11] = second compound 0.1 µM, first compound 0.0316 µM
[12] = second compound 0.1 µM, first compound 0.1 µM
[13] = second compound 0.1 µM, first compound 0.316 µM
[14] = second compound 0.1 µM, first compound 1 µM
[15] = second compound 0.316 µM, first compound 0.0316 µM
[16] = second compound 0.316 µM, first compound 0.1 µM
[17] = second compound 0.316 µM, first compound 0.316 µM
[18] = second compound 0.316 µM, first compound 1 µM
[19] = second compound 1 µM, first compound 0.0316 µM
[20] = second compound 1 µM, first compound 0.1 µM
[21] = second compound 1 µM, first compound 0.316 µM
[22] = second compound 1 µM, first compound 1 µM
[23] = second compound 3.16 µM, first compound 0.0316 µM
[24] = second compound 3.16 µM, first compound 0.1 µM
[25] = second compound 3.16 µM, first compound 0.316 µM
[26] = second compound 3.16 µM, first compound 1 µM
[27] = second compound 10 µM, first compound 0.0316 µM
[28] = second compound 10 µM, first compound 0.1 µM
[29] = second compound 10 µM, first compound 0.316 µM
[30] = second compound 10 µM, first compound 1 µM
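Further: compound exposure lasted 7 days.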
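Wherever viability, T/C is given: 100% = DMSO vehicle control wells.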

IC50 [1]: > 10000 nM
IC50 [2]: > 10000 nM
IC50 [3]: > 10000 nM
IC50 [4]: > 10000 nM
IC50 [5]: > 10000 nM
IC50 [6]: < 31.6 nM
Compound: C#Cc1c(F)ccc2cc(O)cc(-c3ncc4c(N5CC6CCC(C5)N6)nc(OCC56CCCN5CC(F)C6)nc4c3F)c12 (stereo not drawn) + Cc1c(S(C)(=O)=O)c(-c2cc(F)cc(N3CCN(c4ccc(NS(=O)(=O)c5ccc(NC(CCN6CCC(C(=O)OCCCP(=O)(O)O)CC6)CSc6ccccc6)c(S(=O)(=O)C(F)(F)F)c5)cc4)CC3)c2)c(-c2ccc(Cl)cc2)n1C(C)C
viability, T/C [7]: 96.3%
viability, T/C [8]: 93.3%
viability, T/C [9]: 101%
viability, T/C [10]: 102%
viability, T/C (second compound 0.0316 µM, first compound 3.16 µM): 103%
viability, T/C (second compound 0.0316 µM, first compound 10 µM): 97.5%
viability, T/C [11]: 101%
viability, T/C [12]: 97.1%
viability, T/C [13]: 101%
viability, T/C [14]: 94.1%
viability, T/C (second compound 0.1 µM, first compound 3.16 µM): 98%
viability, T/C (second compound 0.1 µM, first compound 10 µM): 82.1%
viability, T/C [15]: 93.4%
viability, T/C [16]: 92.8%
viability, T/C [17]: 88.4%
viability, T/C [18]: 93.1%
viability, T/C (second compound 0.316 µM, first compound 3.16 µM): 97.2%
viability, T/C (second compound 0.316 µM, first compound 10 µM): 73.4%
viability, T/C [19]: 74.5%
viability, T/C [20]: 76.5%
viability, T/C [21]: 80.5%
viability, T/C [22]: 80.6%
viability, T/C (second compound 1 µM, first compound 3.16 µM): 77.7%
viability, T/C (second compound 1 µM, first compound 10 µM): 72.3%
viability, T/C [23]: 65.3%
viability, T/C [24]: 64.3%
viability, T/C [25]: 63.3%
viability, T/C [26]: 62.1%
viability, T/C (second compound 3.16 µM, first compound 3.16 µM): 65.9%
viability, T/C (second compound 3.16 µM, first compound 10 µM): 61.3%
viability, T/C [27]: 48.9%
viability, T/C [28]: 47.7%
viability, T/C [29]: 50.2%
viability, T/C [30]: 51.2%
viability, T/C (second compound 10 µM, first compound 3.16 µM): 51.2%
viability, T/C (second compound 10 µM, first compound 10 µM): 43.9%

IC50 [1]: 95.2 nM
IC50 [2]: 111 nM
IC50 [3]: 55.9 nM
IC50 [4]: 26.8 nM
IC50 [5]: 9.46 nM
IC50 [6]: < 3.16 nM
Compound: O=C(c1ccc(F)c(F)c1Nc1ccc(I)cc1F)N1CC(O)([C@@H]2CCCCN2)C1 + Cc1c(S(C)(=O)=O)c(-c2cc(F)cc(N3CCN(c4ccc(NS(=O)(=O)c5ccc(NC(CCN6CCC(C(=O)OCCCP(=O)(O)O)CC6)CSc6ccccc6)c(S(=O)(=O)C(F)(F)F)c5)cc4)CC3)c2)c(-c2ccc(Cl)cc2)n1C(C)C
viability, T/C (second compound 0.0316 µM, first compound 0.00316 µM): 92%
viability, T/C (second compound 0.0316 µM, first compound 0.01 µM): 80.6%
viability, T/C [7]: 61.6%
viability, T/C [8]: 52.2%
viability, T/C [9]: 35.1%
viability, T/C [10]: 28.1%
viability, T/C (second compound 0.1 µM, first compound 0.00316 µM): 88.2%
viability, T/C (second compound 0.1 µM, first compound 0.01 µM): 76.3%
viability, T/C [11]: 64.6%
viability, T/C [12]: 50.5%
viability, T/C [13]: 38.7%
viability, T/C [14]: 24.4%
viability, T/C (second compound 0.316 µM, first compound 0.00316 µM): 85.7%
viability, T/C (second compound 0.316 µM, first compound 0.01 µM): 77.8%
viability, T/C [15]: 51.2%
viability, T/C [16]: 45.2%
viability, T/C [17]: 34.3%
viability, T/C [18]: 24.8%
viability, T/C (second compound 1 µM, first compound 0.00316 µM): 73.4%
viability, T/C (second compound 1 µM, first compound 0.01 µM): 61.6%
viability, T/C [19]: 47.1%
viability, T/C [20]: 36.7%
viability, T/C [21]: 29.5%
viability, T/C [22]: 20%
viability, T/C (second compound 3.16 µM, first compound 0.00316 µM): 55.3%
viability, T/C (second compound 3.16 µM, first compound 0.01 µM): 51.8%
viability, T/C [23]: 38.6%
viability, T/C [24]: 33.8%
viability, T/C [25]: 22.6%
viability, T/C [26]: 16.6%
viability, T/C (second compound 10 µM, first compound 0.00316 µM): 43.1%
viability, T/C (second compound 10 µM, first compound 0.01 µM): 41.1%
viability, T/C [27]: 34%
viability, T/C [28]: 25.9%
viability, T/C [29]: 16.7%
viability, T/C [30]: 12.3%

IC50 (curve of first compound, second compound 0.00949 µM): > 10000 nM
IC50 (curve of first compound, second compound 0.03 µM): > 10000 nM
IC50 (curve of first compound, second compound 0.0949 µM): > 10000 nM
IC50 (curve of first compound, second compound 0.3 µM): > 10000 nM
IC50 (curve of first compound, second compound 0.949 µM): > 10000 nM
IC50 (curve of first compound, second compound 3 µM): > 10000 nM
Compound: C=CC(=O)N1CCN(c2nc(=O)n(-c3c(C)ccnc3C(C)C)c3nc(-c4c(O)cccc4F)c(F)cc23)C(C)C1 (stereo not drawn) + CCN1C(C(=O)NC23CCC(C(=O)O)(CC2)CC3)C(c2cccc(Cl)c2F)C2(C(=O)Nc3cc(Cl)ccc32)C12CCCCC2
viability, T/C (second compound 0.00949 µM, first compound 0.0316 µM): 94.4%
viability, T/C (second compound 0.00949 µM, first compound 0.1 µM): 96.5%
viability, T/C (second compound 0.00949 µM, first compound 0.316 µM): 93%
viability, T/C (second compound 0.00949 µM, first compound 1 µM): 107%
viability, T/C (second compound 0.00949 µM, first compound 3.16 µM): 104%
viability, T/C (second compound 0.00949 µM, first compound 10 µM): 98%
viability, T/C (second compound 0.03 µM, first compound 0.0316 µM): 108%
viability, T/C (second compound 0.03 µM, first compound 0.1 µM): 96.8%
viability, T/C (second compound 0.03 µM, first compound 0.316 µM): 99.9%
viability, T/C (second compound 0.03 µM, first compound 1 µM): 103%
viability, T/C (second compound 0.03 µM, first compound 3.16 µM): 104%
viability, T/C (second compound 0.03 µM, first compound 10 µM): 88.4%
viability, T/C (second compound 0.0949 µM, first compound 0.0316 µM): 92.4%
viability, T/C (second compound 0.0949 µM, first compound 0.1 µM): 88.6%
viability, T/C (second compound 0.0949 µM, first compound 0.316 µM): 91%
viability, T/C (second compound 0.0949 µM, first compound 1 µM): 93.2%
viability, T/C (second compound 0.0949 µM, first compound 3.16 µM): 97.3%
viability, T/C (second compound 0.0949 µM, first compound 10 µM): 86.3%
viability, T/C (second compound 0.3 µM, first compound 0.0316 µM): 84.4%
viability, T/C (second compound 0.3 µM, first compound 0.1 µM): 84.8%
viability, T/C (second compound 0.3 µM, first compound 0.316 µM): 86.2%
viability, T/C (second compound 0.3 µM, first compound 1 µM): 85.5%
viability, T/C (second compound 0.3 µM, first compound 3.16 µM): 86.7%
viability, T/C (second compound 0.3 µM, first compound 10 µM): 80.3%
viability, T/C (second compound 0.949 µM, first compound 0.0316 µM): 76.5%
viability, T/C (second compound 0.949 µM, first compound 0.1 µM): 77%
viability, T/C (second compound 0.949 µM, first compound 0.316 µM): 74%
viability, T/C (second compound 0.949 µM, first compound 1 µM): 77%
viability, T/C (second compound 0.949 µM, first compound 3.16 µM): 78.2%
viability, T/C (second compound 0.949 µM, first compound 10 µM): 77%
viability, T/C (second compound 3 µM, first compound 0.0316 µM): 71.7%
viability, T/C (second compound 3 µM, first compound 0.1 µM): 73.3%
viability, T/C (second compound 3 µM, first compound 0.316 µM): 75.9%
viability, T/C (second compound 3 µM, first compound 1 µM): 77.6%
viability, T/C (second compound 3 µM, first compound 3.16 µM): 72.5%
viability, T/C (second compound 3 µM, first compound 10 µM): 72.5%

IC50 (curve of compound): 524 nM and 659 nM
Compound: COc1c(OCCCN2CCOCC2)ccc2c3n(c(=NC(=O)c4cnc(N)nc4)nc12)CCN3
viability, T/C (compound 0.00316 µM): 94.5% and 96.1%
viability, T/C (compound 0.01 µM): 90.6% and 82%
viability, T/C (compound 0.0316 µM): 77.9% and 77.5%
viability, T/C (compound 0.1 µM): 65.9% and 65.1%
viability, T/C (compound 0.316 µM): 59% and 58.9%
viability, T/C (compound 1 µM): 41.5% and 44.9%
